The text below walks through data of ChEMBL document CHEMBL1139947, “Bridged androstenediol analogs as ER-beta selective SERMs” (Bioorg Med Chem Lett, 2007).

Assay [1] has as its target T1, Estrogen receptor (Homo sapiens, UniProt P03372).
T1 sequence (P03372 whole entry): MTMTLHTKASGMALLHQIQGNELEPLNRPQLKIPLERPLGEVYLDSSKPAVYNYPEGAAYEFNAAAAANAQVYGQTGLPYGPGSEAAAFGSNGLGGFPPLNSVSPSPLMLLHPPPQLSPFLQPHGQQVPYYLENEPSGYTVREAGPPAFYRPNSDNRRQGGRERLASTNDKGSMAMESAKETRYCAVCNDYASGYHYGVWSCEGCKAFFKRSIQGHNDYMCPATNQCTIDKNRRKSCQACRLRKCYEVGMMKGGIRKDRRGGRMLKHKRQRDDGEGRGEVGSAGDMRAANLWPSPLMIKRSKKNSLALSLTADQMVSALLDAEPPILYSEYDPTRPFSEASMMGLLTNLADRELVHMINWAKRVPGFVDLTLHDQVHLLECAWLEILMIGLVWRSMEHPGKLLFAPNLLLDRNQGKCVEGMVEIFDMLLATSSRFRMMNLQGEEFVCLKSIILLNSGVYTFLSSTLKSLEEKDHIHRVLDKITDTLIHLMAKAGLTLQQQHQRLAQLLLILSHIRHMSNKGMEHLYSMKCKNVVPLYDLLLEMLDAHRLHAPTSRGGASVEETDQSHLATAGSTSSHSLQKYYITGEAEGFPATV
Description: Binding affinity to human recombinant ERalpha by scintillation proximity assay

In assay [2] the target is T2, Estrogen receptor beta (Homo sapiens, UniProt Q92731).
T2 sequence (Q92731 whole entry): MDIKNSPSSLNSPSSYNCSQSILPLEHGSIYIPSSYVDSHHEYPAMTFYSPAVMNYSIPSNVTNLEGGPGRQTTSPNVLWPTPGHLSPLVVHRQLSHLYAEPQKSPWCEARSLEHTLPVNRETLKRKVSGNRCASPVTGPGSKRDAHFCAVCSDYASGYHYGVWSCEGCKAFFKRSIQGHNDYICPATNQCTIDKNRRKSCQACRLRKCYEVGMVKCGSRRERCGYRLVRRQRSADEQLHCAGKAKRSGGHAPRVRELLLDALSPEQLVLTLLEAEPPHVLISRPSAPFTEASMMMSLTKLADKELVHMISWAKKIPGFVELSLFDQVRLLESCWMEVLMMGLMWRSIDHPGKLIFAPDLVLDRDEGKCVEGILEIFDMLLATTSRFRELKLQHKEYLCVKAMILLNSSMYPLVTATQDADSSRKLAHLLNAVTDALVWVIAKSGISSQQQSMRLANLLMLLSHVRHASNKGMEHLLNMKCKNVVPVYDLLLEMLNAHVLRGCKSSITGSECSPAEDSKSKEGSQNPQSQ
Description: Binding affinity to human recombinant ERbeta by scintillation proximity assay
Assay [3] has as its target T1, Estrogen receptor. The source holds these as a separate data set.
Description: Agonist activity at human recombinant ERalpha expressed in HEK293 cells by transactivation assay
The target of assay [4] is T2, Estrogen receptor beta. The source holds these as a separate data set.
Description: Agonist activity at human recombinant ERbeta expressed in HEK293 cells by transactivation assay
Another assay concerns the target T3, Androgen receptor (Homo sapiens, UniProt P10275).
T3 sequence (P10275 whole entry): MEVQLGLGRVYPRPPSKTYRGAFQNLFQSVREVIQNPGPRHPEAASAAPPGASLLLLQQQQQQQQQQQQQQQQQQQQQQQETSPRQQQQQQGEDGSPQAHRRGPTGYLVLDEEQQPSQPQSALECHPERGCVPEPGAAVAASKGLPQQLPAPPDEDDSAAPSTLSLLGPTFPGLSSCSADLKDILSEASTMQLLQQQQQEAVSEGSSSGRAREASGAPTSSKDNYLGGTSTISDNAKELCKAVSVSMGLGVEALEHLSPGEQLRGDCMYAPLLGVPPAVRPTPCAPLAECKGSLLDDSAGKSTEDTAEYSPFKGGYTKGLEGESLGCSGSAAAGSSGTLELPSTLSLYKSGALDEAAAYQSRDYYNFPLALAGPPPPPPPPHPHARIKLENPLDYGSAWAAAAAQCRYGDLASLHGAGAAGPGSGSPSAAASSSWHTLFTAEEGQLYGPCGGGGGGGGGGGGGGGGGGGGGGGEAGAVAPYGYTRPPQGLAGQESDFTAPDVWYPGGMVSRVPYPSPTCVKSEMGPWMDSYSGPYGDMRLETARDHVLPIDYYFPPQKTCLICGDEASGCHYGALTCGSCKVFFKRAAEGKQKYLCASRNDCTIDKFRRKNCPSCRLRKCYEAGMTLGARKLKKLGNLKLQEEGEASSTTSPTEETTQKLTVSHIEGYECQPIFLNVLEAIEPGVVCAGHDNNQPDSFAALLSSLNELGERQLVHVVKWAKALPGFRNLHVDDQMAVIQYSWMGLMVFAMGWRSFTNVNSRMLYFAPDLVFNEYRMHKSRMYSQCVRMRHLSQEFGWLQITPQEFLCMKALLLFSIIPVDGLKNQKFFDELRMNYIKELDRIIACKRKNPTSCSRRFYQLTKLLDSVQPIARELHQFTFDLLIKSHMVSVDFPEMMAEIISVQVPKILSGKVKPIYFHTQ

Each structure is given as a SMILES string. pEC50, pIC50: −log10 of the molar value. Bounds are passed on as bounds.

Description for Androgen receptor: Binding affinity to androgen receptor

By pIC50 is commonly meant the IC50 on a negative log10 scale, so that one unit is a factor of ten. By pEC50 is commonly meant the negative decadic logarithm of the EC50, by convention in mol/L. Low readings indicate a high EC50, high ones a low EC50. Turning to `C[C@]12CC[C@H]3[C@@H](CC=C4C[C@@H]5CC[C@@]43CC(=O)O5)[C@@H]1CC[C@@H]2O`, the pIC50 on Estrogen receptor [1] was under 5.00; on Estrogen receptor beta [2], under 5.00; on Androgen receptor, under 6.00. The pEC50 at Estrogen receptor [3] and on Estrogen receptor beta [4] was under 6.00 each time.
Turning to `C=CC[C@@H]1C2=CC[C@H]3[C@@H]4CC[C@H](O)[C@@]4(C)CC[C@@H]3[C@@]2(C=C)CC[C@@H]1O`, the negative-log IC50 (pIC50) against Estrogen receptor [1] is under 5.00; at Estrogen receptor beta [2], 5.52; against Androgen receptor it was 7.82. The pEC50 on Estrogen receptor [3] and at Estrogen receptor beta [4] was under 6.00 throughout.
In the case of `C/C=C\[C@]12CC[C@H](O)CC1=CC[C@H]1[C@@H]3CC[C@H](O)[C@@]3(C)CC[C@@H]12`, the pIC50 at Estrogen receptor [1] was 5.71; at Estrogen receptor beta [2], 7.80; against Androgen receptor it was 6.14. The pEC50 at Estrogen receptor [3] is 6.46; on Estrogen receptor beta [4], 7.68.
The like results for `C[C@]12CC[C@H]3[C@@H](CC=C4[C@@H]5C(=O)CC[C@@]43C[C@@H]5O)[C@@H]1CC[C@@H]2O` were, in that order, under 5.00, under 5.00, under 6.00, under 6.00 and under 6.00.
The like results for `C[C@]12CC[C@H]3[C@@H](CC=C4[C@H]5CC[C@]43CC[C@H]5O)[C@@H]1CC[C@@H]2O` were, in that order, 5.09, 6.07, 5.95, 6.36 and 6.70.
Consider `C=C[C@]12CC[C@H](O)CC1=CC[C@H]1[C@@H]3CC[C@H](O)[C@@]3(C)CC[C@@H]12`, for which, on Estrogen receptor [1], the pIC50 was 5.65. Moreover, the pEC50 is 6.01 at Estrogen receptor [3] and 8.40 at Estrogen receptor beta [4].
Turning to `C[C@]12CC[C@H]3[C@@H](CC=C4C[C@@H]5CC[C@@]43CCO5)[C@@H]1CC[C@@H]2O`, the pIC50 against Estrogen receptor [1] was under 5.00; at Estrogen receptor beta [2] it was under 5.00; against Androgen receptor, 6.15. The values for the pEC50 at Estrogen receptor [3] and on Estrogen receptor beta [4] were under 6.00 and 6.36, respectively.
For the compound `C[C@]12CC[C@H]3[C@@H](CC=C4[C@H]5CC=C[C@]43CC[C@@H]5O)[C@@H]1CC[C@@H]2O`, the negative logarithm of the IC50 (pIC50) against Estrogen receptor [1] was 5.65; against Estrogen receptor beta [2], 6.80; against Androgen receptor, 7.07. The pEC50 is 5.31 on Estrogen receptor [3] and 6.88 at Estrogen receptor beta [4].
On to `CC[C@]12CC[C@H](O)CC1=CC[C@@H]1[C@@H]2CC[C@]2(C)[C@@H](O)CC[C@@H]12`, for which the pIC50 at Estrogen receptor [1] was 5.63; on Estrogen receptor beta [2] it was 7.80; against Androgen receptor it was 7.06.
On to `C[C@]12CC[C@H]3[C@@H](CC=C4[C@H]5CC[C@]43CC[C@@H]5O)[C@@H]1CC[C@@H]2O`, for which the pIC50 is 6.50 against Estrogen receptor [1], 7.30 at Estrogen receptor beta [2] and 5.86 against Androgen receptor. Besides, the pEC50 was 7.36 at Estrogen receptor [3] and 7.55 at Estrogen receptor beta [4].
With `C[C@]12CC[C@H]3[C@@H](CC=C4[C@@H]5C(=O)CC[C@@]43C[C@H]5O)[C@@H]1CC[C@@H]2O`, the results for the negative-log IC50 (pIC50) on Estrogen receptor [1], at Estrogen receptor beta [2] and against Androgen receptor were under 5.00, under 5.00 and under 6.00, respectively. Further, the pEC50 on Estrogen receptor [3] and at Estrogen receptor beta [4] was under 6.00 throughout.
At Estrogen receptor [1], `C=C[C@]12CCC(=O)C=C1CC[C@H]1[C@@H]3CC[C@H](O)[C@@]3(C)CC[C@@H]12` had a pIC50 of under 5.00. The pEC50 on Estrogen receptor [3] was under 6.00.
For the compound `C[C@]12CC[C@H]3[C@@H](CC4C5=CC(=O)CC[C@@]53C[C@H]4O)[C@@H]1CC[C@@H]2O`, the pIC50 is under 5.00 against Estrogen receptor [1], under 5.00 at Estrogen receptor beta [2] and under 6.00 on Androgen receptor. Further, the pEC50 on Estrogen receptor [3] and at Estrogen receptor beta [4] was under 6.00 in each case.
Consider `C[C@]12CC[C@H]3[C@@H](CC[C@H]4[C@H]5CCC[C@]43CC[C@@H]5O)[C@@H]1CC[C@@H]2O`, for which the figures for the pIC50 against Estrogen receptor [1], on Estrogen receptor beta [2] and on Androgen receptor were 5.30, 6.49 and 7.17, respectively. The negative-log EC50 (pEC50) on Estrogen receptor [3] was 5.89; at Estrogen receptor beta [4] it was 6.66.
As for `C[C@]12CC[C@H]3[C@@H](CC=C4[C@H]5CC[C@]43CCC5=O)[C@@H]1CC[C@@H]2O`, the pIC50 against Estrogen receptor [1] was under 5.00; on Estrogen receptor beta [2] it was 5.84. Besides, the pEC50 is 6.39 on Estrogen receptor [3] and 7.07 at Estrogen receptor beta [4].
